From US20260263442A1, “METHOD FOR TREATING L-DOPA-INDUCED DYSKINESIA USING BEFIRADOL” (Neurolixis, Inc., priority 2023, published 2026)
Read-outs that look alike come from different tables or passages of the source.

Columns and labels:
[1] = test system: quality of life in PD patients with LID; assay: Parkinson's Disease Questionnaire (PDQ39), Phase 2a study; format: in vivo, human
Excerpt: The PDQ39-item patient reported outcome of health status and quality of life and is the most frequently used disease-specific health status measure for PD. The questionnaire assesses how often people affected by PD experience difficulties across 8 dimensions of daily living. The standard PDQ39 assesses quality of life over the previous month. In this study the initial time period assessed at the Baseline Visit would be the previous month, with subsequent assessments for the intervening period since the last clinic visit (about 3 weeks). The 8 quality of life dimensions covered in the questionnaire are: • Mobility (10 items #1-10) • ADL (6 items #11-16) • Emotional Well Being (6 items #17-22) • Stigma (4 items #23-26) • Social Support (3 items #27-29) • Cognition (4 items #30-33) • Communications (3 items #34-36) • Bodily Discomfort (3 items #37-39) Individual items are rated by the patient on a scale of […]. Dimension scores are calculated on a scale of 0 to 100. The total score and individual dimension scores would be assessed for change from baseline.

[2] = both, human, in vivo
5-HT1A receptors = target: T1, 5-HT1A receptors (Homo sapiens, UniProt P08908); settings: cited from earlier work
T1 sequence (P08908 1-422): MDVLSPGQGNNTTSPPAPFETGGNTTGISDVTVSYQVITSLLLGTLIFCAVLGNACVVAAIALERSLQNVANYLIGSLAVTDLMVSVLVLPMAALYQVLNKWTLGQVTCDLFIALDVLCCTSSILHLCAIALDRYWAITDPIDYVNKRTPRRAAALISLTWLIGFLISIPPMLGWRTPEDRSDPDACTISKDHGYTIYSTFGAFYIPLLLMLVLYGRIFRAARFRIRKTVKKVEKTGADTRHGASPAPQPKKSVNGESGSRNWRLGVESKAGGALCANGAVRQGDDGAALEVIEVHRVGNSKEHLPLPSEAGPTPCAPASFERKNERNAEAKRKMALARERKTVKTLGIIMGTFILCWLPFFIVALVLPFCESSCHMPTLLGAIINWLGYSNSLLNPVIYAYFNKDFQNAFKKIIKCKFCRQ

MPTP-treated marmosets = settings: cited from earlier work

Cc1ccc(CNCC2(F)CCN(C(=O)c3ccc(F)c(Cl)c3)CC2)nc1 [NLX-112]
Quality of life (PDQ39 score), effect ([1]; Days 28 or 42): no consistent statistically significant effect | PDQ39, Δ D28, mean (S.D.) ([1]; change from baseline at day 28 (end of up-titration period), Per Protocol Set, n = 15): −1.5 (8.0) | PDQ39, Δ D42, mean (S.D.) ([1]; change from baseline at day 42 (end of stable dosing period), Per Protocol Set, n = 15): −0.6 (6.5) | Befiradol Cmax in female subjects, higher than males by [2]: 20%-40% | 5-HT1A receptor agonist profile (5-HT1A receptors): exceptional selectivity for 5-HT1A receptors and full agonist properties | 5-HT1A receptor agonist profile (5-HT1A receptors; listed as Befiradol): selective and potent | Cellular signaling (biased agonist profile) (5-HT1A receptors; via G-proteins): preferentially activates specific cellular signaling cascades | Disability scores (MPTP-treated marmosets): reduces disability scores
